The text below walks through data of PMC10298284, “Synthesis and hLDH Inhibitory Activity of Analogues to Natural Products with 2,8-Dioxabicyclo[3.3.1]nonane Scaffold” (International Journal of Molecular Sciences, 2023).

For data set [1], the target named is T1, recombinant human LDHB (Homo sapiens, UniProt P07195).
T1 construct: purchased Abcam
The data set can be described thus: hLDHB enzymatic activity assay (same fluorimetric protocol). It is filed as biochemical. As to conditions: mean ± SD of n = 3 replicates. The protocol: (§1) Briefly, the decrease in the coenzyme β-NADH fluorescence (λemission = 460 nm) was measured for 10 min, at different concentration of inhibitors, and its slope was compared with the one obtained when there were not inhibitors added (100% enzymatic activity).
The ability of the synthesized compounds to inhibit the hLDHB enzyme was measured using recombinant human LDHB (95%, specific activity >300 units/mg and concentration of 1.0 mg/mL, Abcam, Cambridge, UK) following the same fluorimetric protocol described in Section 3.4.

The target in data set [2] is T2, recombinant human LDHA (Homo sapiens, UniProt P00338).
T2 construct: purchased Abcam
Further details: method as in PMID 36113265. As to conditions: compounds evaluated previously, cited from earlier work; for IC50: included for comparative purposes, read-out: hLDHA IC50; for Selectivity Rate (IC50 hLDHB/hLDHA): ratio IC50 hLDHB / IC50 hLDHA.

Data set [3] concerns the target T1, recombinant human LDHB. Also noted: method as in PMID 36113265. As to conditions: compounds evaluated previously, included for comparative purposes; read-out: hLDHB IC50; cited from earlier work.
For data set [4], the target named is T2, recombinant human LDHA. The data set can be described thus: hLDHA enzymatic activity assay (kinetic spectrofluorimetric, β-NADH fluorescence decrease). The following applies: for IC50: mean ± SD of n = 3 replicates; for Selectivity Rate (IC50 hLDHB/hLDHA): ratio IC50 hLDHB / IC50 hLDHA. It is filed as biochemical. The procedure:
as §1
The enzymatic assay was conducted on 96-well microplates and the decrease in the β-NADH fluorescence (λexcitation = 340 nm; λemission = 460 nm) was detected in a TECAN Infinite 200 Pro M Plex fluorescent plate reader (Tecan Instrument, Inc.) at 28 °C. The activity was determined according to our previously described protocol. The final volume in each well was set to 200 µL using 100 mM potassium phosphate buffer, 0.041 units/mL LDHA, 155 µM β-NADH, 1 mM pyruvate (saturated conditions), and DMSO solutions (5%, v/v) of pure compounds at concentrations in the range of 1–600 µM. The addition of pyruvate allowed the beginning of the reaction and fluorescence was registered every 60 s during 10 min. A lineal time interval was selected to calculate the slope at every single concentration. […] The slope obtained at each concentration was compared to the one obtained for the 100% enzymatic activity control to determine the corresponding enzymatic activity. A nonlinear regression analysis in GraphPad Prism version 9.00 for Windows (GraphPad Software, La Jolla, CA, USA) was used for dose response curve, fitting of logarithm of inhibitor concentration vs. normalized enzymatic activity, to calculate IC50 values (Supplementary Material section). All measurements were made in triplicate and data were expressed as the mean ± SD.

[5] abbreviates: supplementary dose response curves, µM only on the axis label, read-out: IC50 (hLDHB inhibition curve).
Where [6] appears, read: 1 mM pyruvate, 155 µM β-NADH, pH 7.3, 28 °C, read-out: hLDHA IC50.
The mark [7] stands for this setting: supplementary dose response curves, µM only on the axis label, read-out: IC50 (hLDHA inhibition curve).

By IC50 is commonly meant the concentration that inhibits the measured activity by half. Broadly, the melting point is the temperature, or range, at which the solid turns liquid.

“And” between values parts separate entries of the source, which are not always exact repeats. Equal entries are not always repeated. Where two headings read alike, the source gives them in different places.

T1 sequence (P07195 whole entry): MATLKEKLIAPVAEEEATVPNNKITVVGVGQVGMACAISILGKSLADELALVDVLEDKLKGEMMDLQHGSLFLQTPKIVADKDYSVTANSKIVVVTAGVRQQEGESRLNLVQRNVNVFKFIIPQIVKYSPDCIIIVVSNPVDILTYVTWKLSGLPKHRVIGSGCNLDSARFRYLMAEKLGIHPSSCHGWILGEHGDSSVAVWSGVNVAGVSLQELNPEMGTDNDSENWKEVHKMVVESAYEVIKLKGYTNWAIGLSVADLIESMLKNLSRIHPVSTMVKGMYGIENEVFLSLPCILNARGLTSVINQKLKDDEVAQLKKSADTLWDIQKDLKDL

As for `Oc1cc(O)c2c(c1)OC1(c3ccc(O)c(O)c3)CC2c2ccccc2O1` (racemic) [(±)-1], the IC50 on recombinant human LDHB [1] (setting [5]) worked out at 35.4 ± 0.8 µM. Also, on recombinant human LDHA [2], the IC50 is 73.1 ± 2.5 µM and the “Selectivity Rate (IC50 hLDHB/hLDHA)” value is 0.5.

Consider `O=[N+]([O-])c1ccc2c(c1)C1CC(c3ccc(O)c(O)c3)(O2)Oc2cc(O)cc(O)c21` (racemic) [(±)-2], for which, at recombinant human LDHA [2], the IC50 is 9.7 ± 1.1 µM and the “Selectivity Rate (IC50 hLDHB/hLDHA)” value is given as 3.0. Moreover, the half-maximal inhibitory concentration (IC50) on recombinant human LDHB [3] is 28.6 ± 1.9 µM.

Consider `Oc1cc(O)c2c(c1)OC1(c3ccc(O)c(O)c3)CC2c2cc(Cl)ccc2O1` (racemic) [(±)-3], for which the IC50 on recombinant human LDHA [2] is 15.7 ± 2.7 µM; at recombinant human LDHB [3], 39.7 ± 2.8 µM. Also, the “Selectivity Rate (IC50 hLDHB/hLDHA)” value at recombinant human LDHA [2] was 2.5.

Turning to `Oc1ccc(C23CC(c4ccccc4O2)c2c(O)cc(O)cc2O3)cc1` (racemic) [(±)-4], the IC50 at recombinant human LDHB [1] (setting [5]) amounted to 45.9 ± 1.5 µM. Also, on recombinant human LDHA [2], the IC50 is 60 ± 4.7 µM and the “Selectivity Rate (IC50 hLDHB/hLDHA)” value was 0.8.

Turning to `O=[N+]([O-])c1ccc2c(c1)C1CC(c3ccc(O)cc3)(O2)Oc2cc(O)cc(O)c21` (racemic) [(±)-5], at recombinant human LDHA [2], the IC50 was 24.4 ± 2.7 µM and the “Selectivity Rate (IC50 hLDHB/hLDHA)” value is reported as 2.9. Besides, the IC50 at recombinant human LDHB [3] was 69.7 ± 4.7 µM.

As for `Oc1ccc(C23CC(c4cc(Cl)ccc4O2)c2c(O)cc(O)cc2O3)cc1` (racemic) [(±)-6], on recombinant human LDHA [2], the IC50 is 26.7 ± 0.8 µM and the “Selectivity Rate (IC50 hLDHB/hLDHA)” value is on record as 3.2. In addition, the IC50 on recombinant human LDHB [3] is 85.5 ± 2.5 µM.

`COc1ccc(C23CC(C4=C(CC(c5ccccc5)OC4=O)O2)c2cc([N+](=O)[O-])ccc2O3)cc1OC` (racemic) [(±)-65a, 2-(3′,4′-Dimethoxyphenyl)-6-nitrochromane-(4→3″, 2→O-4″)-4″-hydroxy-6″-phenyl-5″,6″-dihydro-2H-pyran-2″-one] came in with a melting point of 198 to 200 °C. Also, the IC50 at recombinant human LDHA [4] (setting [6]) was 12.5 ± 1.1 µM. For the same molecule, the “Selectivity Rate (IC50 hLDHB/hLDHA)” value at recombinant human LDHA [4] was 21.5. Also, at recombinant human LDHA [4] (listed as 65a), the “Selectivity Rate (IC50 hLDHB/hLDHA)” value was > 10. Moreover, at recombinant human LDHA [4] (setting [7]), the IC50 was determined as 12.5 ± 1.1 µM. On recombinant human LDHB [1] (read-out: hLDHB IC50), the IC50 worked out at 269 ± 11 µM.

`COc1ccc(C23CC(C4=C(CC(c5ccc(Cl)cc5)OC4=O)O2)c2cc([N+](=O)[O-])ccc2O3)cc1OC` (racemic) [(±)-66a, 2-(3′,4′-Dimethoxyphenyl)-6-nitrochromane-(4→3″, 2→O-4″)-6″-(4‴-chlorophenyl)-4″-hydroxy-5″,6″-dihydro-2H-pyran-2″-one] registered a melting point of 194 to 196 °C. Also, the IC50 on recombinant human LDHA [4] (setting [6]) was < 10 µM and 5.8 µM. Further, on recombinant human LDHA [4], the “Selectivity Rate (IC50 hLDHB/hLDHA)” value was determined as 4.8. Further, at recombinant human LDHA [4] (setting [7]), the IC50 was 5.8 µM. The IC50 on recombinant human LDHB [1] (read-out: hLDHB IC50) was determined as 28.1 ± 0.4 µM.

For `COc1ccc(C2CC3=C(C(=O)O2)C2CC(c4ccc(OC)c(OC)c4)(O3)Oc3ccc([N+](=O)[O-])cc32)cc1` (racemic) [(±)-67a, 2-(3′,4′-Dimethoxyphenyl)-6-nitrochromane-(4→3″, 2→O-4″)-4″-hydroxy-6″-(4‴-methoxyphenyl)-5″,6″-dihydro-2H-pyran-2″-one], the melting point lay within 162 to 164 °C. On recombinant human LDHA [4] (setting [6]), the IC50 was found to be 14.8 ± 0.6 µM. For the same molecule, at recombinant human LDHA [4], the “Selectivity Rate (IC50 hLDHB/hLDHA)” value is given as >20.3. For the same molecule, at recombinant human LDHA [4] (listed as 67a), the “Selectivity Rate (IC50 hLDHB/hLDHA)” value was > 10. For the same molecule, the 50% inhibitory concentration (IC50) on recombinant human LDHA [4] (setting [7]) stood at 14.8 ± 0.6 µM. The half-maximal inhibitory concentration (IC50) at recombinant human LDHB [1] (read-out: hLDHB IC50) was > 300 µM.

In the case of `COc1ccc(C23CC(C4=C(CC(c5ccc(Cl)cc5)OC4=O)O2)c2cc(Cl)ccc2O3)cc1OC` (racemic) [(±)-69a, 2-(3′,4′-Dimethoxyphenyl)-6-chlorochromane-(4→3″, 2→O-4″)-6″-(4‴-chlorophenyl)-4″-hydroxy-5″,6″-dihydro-2H-pyran-2″-one], the melting point is 172 to 175 °C. Further, on recombinant human LDHA [4] (setting [6]), the IC50 worked out at 20 ± 0.6 µM. Moreover, the “Selectivity Rate (IC50 hLDHB/hLDHA)” value on recombinant human LDHA [4] was found to be 7.1. Besides, at recombinant human LDHA [4] (setting [7]), the IC50 amounted to 20 ± 0.6 µM. The IC50 at recombinant human LDHB [1] (read-out: hLDHB IC50) was 141 ± 2.5 µM.

Molecule `COc1ccc(C2CC3=C(C(=O)O2)C2CC(c4ccc(OC)c(OC)c4)(O3)Oc3ccc(Cl)cc32)cc1` (racemic) [(±)-70a, 2-(3′.4′-Dimethoxyphenyl)-6-chlorochromane-(4→3″, 2→O-4″)-4″-hydroxy-6″-(4‴-methoxyphenyl)-5″,6″-dihydro-2H-pyran-2″-one] gave a melting point of 108 to 111 °C. The IC50 on recombinant human LDHA [4] (setting [6]) turned out to be 112 ± 3 µM. At recombinant human LDHA [4], the “Selectivity Rate (IC50 hLDHB/hLDHA)” value is on record as >2.7. Moreover, the IC50 at recombinant human LDHA [4] (setting [7]) is 112 ± 3 µM. Besides, the IC50 on recombinant human LDHB [1] (read-out: hLDHB IC50) was > 300 µM.
